This is an account of results in patent US8546409B2, “Methods of treatment for solid tumors” (priority 2009, dated 2013).

For one data set, the target named is T1, p110β (Homo sapiens, UniProt P42338).
T1 construct: expressed in transfected cells; host or cells: chick embryo fibroblasts (CEF), viral transduction
Briefly: Chick embryo fibroblast (CEF) transformation assay, p110β. The format is cell-based. As to conditions: read-out: EC-50 for inhibition of functional activity of p110β. From the text:
(§1) Moreover, compound I has comparatively low activity on p110α in a cell-transformation system designed to measure functional activity of these kinases, but is a potent inhibitor of both p110β and p110δ in that assay. See Example 1. This chick embryo fibroblast (CEF) transformation system has been reported as a useful way to assess the functional activity of the PI3K signaling pathway. Denley, et al., “Oncogenic signaling of class I PI3K isoforms,” Oncogene, vol. 27(18), 2561-74 (2008). Transformation of CEF cells in the assay depends upon functional kinase activity. Kang, et al., Proc. Nat'l Acad. Sci. USA, vol. 103(5), 1289-94 (2006). The readout of this assay is based on the frequency of transformation of CEF cells exposed to viral vectors carrying a specific p110 isoform of interest.
(§2) Chick embryo fibroblasts (CEF) are transduced with viral stocks with versions of the human genes for the individual PI3K isoforms p110α, p110β, p110δ and p110γ. These transduced CEF lines are then plated in a growth medium where oncogenically transformed cells form foci that can then be stained and counted. […] Denley A, Kang S, Karst U and Vogt PK, “Oncogenic signaling of class 1 PI3K isoforms.” Oncogene (2008) 27: 2561-2574. FIG. 3 illustrates the readout of this assay.

Another data set addresses T2, p110δ (Homo sapiens, UniProt O00329).
T2 construct: endogenous in cells
Briefly: Cell-based p110δ assay: anti-FcεR1 stimulated CD63 movement to surface of basophils. On the procedure:
The p110α assay used SW3T3 cells stimulated by PDGF, and p110 kinase activity was measured by Akt phosphorylation. The p110β activity was measured by lysophosphatidic acid stimulation of Akt phosphorylation in mouse embryonic fibroblasts. The activity of p110δ was measured by anti-FcεR1 antibody cross linking stimulation of CD63 movement to the surface of basophils. Finally, the activity of p110γ was measured by fMLP stimulation of CD63 antigen movement to the cell surface of basophils.

In another data set the test system is M14. Briefly: NCI panel growth inhibition, M14. Type of data set: cell-based. As to conditions: Homo sapiens, Melanoma. From the text:
(§3) Compound I has also been tested in a battery of tumor cell assays known as the NCI panel.

A further data set deals with NCI-H460. In words: NCI panel growth inhibition, NCI-H460. The format is cell-based. As to conditions: Homo sapiens, Non-Small Cell Lung Cancer.
Text: as §3

In another data set the test system is OVCAR-8. In words: NCI panel growth inhibition, OVCAR-8. The format is cell-based. As to conditions: Homo sapiens, Ovarian.
Text: as §3

In another data set the test system is SK-MEL-28. In words: NCI panel growth inhibition, SK-MEL-28. Type of data set: cell-based. As to conditions: Homo sapiens, Melanoma.
Text: as §3

The subject of the next data set is HOP-62. Briefly: NCI panel growth inhibition, HOP-62. As to conditions: Homo sapiens, Non-Small Cell Lung Cancer. The format is cell-based.
Text: as §3

Another data set relates to IGROV1. In words: NCI panel growth inhibition, IGROV1. The format is cell-based. Particulars: Homo sapiens, IGROV-1, Ovarian.
Text: as §3

The subject of another data set is MALME-3M. Briefly: NCI panel growth inhibition, MALME-3M. Particulars: Homo sapiens, Melanoma. Type of data set: cell-based.
Text: as §3

A further data set in a line: in vivo. Particulars: female, nu/nu, mouse. Also on record: species or system mice. As for the experimental part:
At this range, which was the effective dosage used in the tests shown in FIGS. 8 and 9, plasma concentration of compound I reaches about 5000-7000 ng/mL.
Compound I was administered in a single dose at a rate of 30 mg/kg to each test subject, and plasma levels were monitored for 12 hours thereafter. Plasma levels of Compound I peaked around 2-4 hours after administration in each case, and had essentially returned to zero 8 hours after the single dose at this rate, as shown in FIG. 10. The peak plasma concentration for these subjects, after a single injection at the dose shown to be effective for inhibiting tumor growth of each xenograft (see the preceding examples, and FIGS. 8-9) were generally below about 7000 ng/mL.

The next data set has as its system COLO 205. Briefly: NCI panel growth inhibition, COLO 205. Type of data set: cell-based. As to conditions: Homo sapiens, Colon Cancer.
Text: as §3

In a further data set the test system is HCC-2998. Briefly: NCI panel growth inhibition, HCC-2998. The format is cell-based. As to conditions: Homo sapiens, Colon Cancer.
Text: as §3

A further data set deals with SNB-19. Briefly: NCI panel growth inhibition, SNB-19. Type of data set: cell-based. Particulars: Homo sapiens, CNS Cancer.
Text: as §3

The subject of a further data set is ADR-RES. In words: NCI panel growth inhibition, ADR-RES. The format is cell-based. As to conditions: Breast Cancer.
Text: as §3

Another data set concerns RXF 393. In words: NCI panel growth inhibition, RXF 393. The format is cell-based. As to conditions: Homo sapiens, Renal.
Text: as §3

For the next data set, the target named is p110α (Homo sapiens, UniProt P42336). In words: Chick embryo fibroblast (CEF) transformation assay, p110α. Particulars: read-out: EC-50 for functional activity of p110α, highest concentration tested 2000 nM. The format is cell-based.
Sequence of p110α (P42336 whole entry, change not shown): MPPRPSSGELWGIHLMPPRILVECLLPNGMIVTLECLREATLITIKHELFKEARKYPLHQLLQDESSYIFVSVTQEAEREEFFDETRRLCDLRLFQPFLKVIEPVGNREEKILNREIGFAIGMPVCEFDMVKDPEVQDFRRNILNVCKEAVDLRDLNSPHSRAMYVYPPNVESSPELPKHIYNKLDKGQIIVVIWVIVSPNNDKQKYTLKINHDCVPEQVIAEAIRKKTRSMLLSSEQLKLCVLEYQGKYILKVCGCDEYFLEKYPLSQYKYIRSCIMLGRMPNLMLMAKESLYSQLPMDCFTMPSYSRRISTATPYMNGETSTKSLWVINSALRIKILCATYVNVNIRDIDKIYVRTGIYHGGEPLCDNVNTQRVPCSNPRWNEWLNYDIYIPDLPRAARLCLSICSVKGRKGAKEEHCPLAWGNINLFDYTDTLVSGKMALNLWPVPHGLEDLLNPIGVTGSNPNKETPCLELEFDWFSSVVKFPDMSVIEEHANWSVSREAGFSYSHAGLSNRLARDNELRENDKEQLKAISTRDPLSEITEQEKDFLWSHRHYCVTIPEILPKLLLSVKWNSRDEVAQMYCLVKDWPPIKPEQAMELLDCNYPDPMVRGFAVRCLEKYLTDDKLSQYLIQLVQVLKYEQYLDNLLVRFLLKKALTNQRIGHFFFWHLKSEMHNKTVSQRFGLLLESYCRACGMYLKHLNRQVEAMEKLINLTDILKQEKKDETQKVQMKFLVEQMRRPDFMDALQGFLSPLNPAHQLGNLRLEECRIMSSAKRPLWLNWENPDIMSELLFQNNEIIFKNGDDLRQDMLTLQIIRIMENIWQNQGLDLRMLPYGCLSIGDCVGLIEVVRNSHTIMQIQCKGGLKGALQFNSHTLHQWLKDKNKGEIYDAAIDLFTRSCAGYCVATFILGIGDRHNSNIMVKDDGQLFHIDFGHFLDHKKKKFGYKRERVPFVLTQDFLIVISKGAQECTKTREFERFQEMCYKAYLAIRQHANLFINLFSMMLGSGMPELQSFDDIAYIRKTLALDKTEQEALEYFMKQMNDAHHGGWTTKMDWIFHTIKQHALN
Text: as §1, §2

In another data set the test system is DU-145. Briefly: NCI panel growth inhibition, DU-145. Particulars: Homo sapiens, Prostate. Type of data set: cell-based.
Text: as §3

Another data set concerns UACC-62. In words: NCI panel growth inhibition, UACC-62. Particulars: Homo sapiens, Melanoma. The format is cell-based.
Text: as §3

The next data set relates to UO-31. Briefly: NCI panel growth inhibition, UO-31. The format is cell-based. As to conditions: Homo sapiens, Renal.
Text: as §3

A further data set deals with A498. In words: NCI panel growth inhibition, A498. The format is cell-based. Particulars: Homo sapiens, Renal.
Text: as §3

pEC50: −log10 of the molar value. “And” between values parts separate entries of the source, which are not always exact repeats. Identical values can stand only once. Like-named read-outs stand apart in the source and are kept apart here.

T1 sequence (P42338 whole entry): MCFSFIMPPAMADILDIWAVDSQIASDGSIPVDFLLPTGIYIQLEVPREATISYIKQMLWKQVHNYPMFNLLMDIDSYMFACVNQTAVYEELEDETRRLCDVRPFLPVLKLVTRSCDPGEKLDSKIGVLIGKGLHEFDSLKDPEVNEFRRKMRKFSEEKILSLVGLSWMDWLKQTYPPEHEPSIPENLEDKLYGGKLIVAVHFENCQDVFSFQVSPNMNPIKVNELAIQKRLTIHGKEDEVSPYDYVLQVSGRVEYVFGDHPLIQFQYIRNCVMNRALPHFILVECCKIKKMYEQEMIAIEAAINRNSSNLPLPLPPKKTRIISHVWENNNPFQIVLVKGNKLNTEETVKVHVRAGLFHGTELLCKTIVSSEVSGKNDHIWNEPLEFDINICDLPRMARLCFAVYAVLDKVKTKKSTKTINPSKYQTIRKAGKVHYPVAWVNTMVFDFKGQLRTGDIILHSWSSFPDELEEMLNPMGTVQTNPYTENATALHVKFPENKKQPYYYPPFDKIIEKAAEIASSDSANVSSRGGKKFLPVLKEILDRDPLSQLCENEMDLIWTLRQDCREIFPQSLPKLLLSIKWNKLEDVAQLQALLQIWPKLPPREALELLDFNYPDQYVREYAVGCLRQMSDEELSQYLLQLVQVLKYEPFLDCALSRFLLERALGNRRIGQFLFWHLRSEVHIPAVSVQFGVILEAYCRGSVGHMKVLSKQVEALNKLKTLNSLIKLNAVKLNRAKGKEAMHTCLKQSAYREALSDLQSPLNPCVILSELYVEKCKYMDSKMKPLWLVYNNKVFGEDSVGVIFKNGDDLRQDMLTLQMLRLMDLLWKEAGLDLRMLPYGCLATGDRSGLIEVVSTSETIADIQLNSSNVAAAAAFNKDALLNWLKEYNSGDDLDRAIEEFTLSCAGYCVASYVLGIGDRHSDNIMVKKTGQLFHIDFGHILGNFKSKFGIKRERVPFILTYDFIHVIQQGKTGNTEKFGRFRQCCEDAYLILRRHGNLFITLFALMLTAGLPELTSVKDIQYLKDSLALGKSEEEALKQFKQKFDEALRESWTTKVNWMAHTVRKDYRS
T2 sequence (O00329 whole entry, species assumed): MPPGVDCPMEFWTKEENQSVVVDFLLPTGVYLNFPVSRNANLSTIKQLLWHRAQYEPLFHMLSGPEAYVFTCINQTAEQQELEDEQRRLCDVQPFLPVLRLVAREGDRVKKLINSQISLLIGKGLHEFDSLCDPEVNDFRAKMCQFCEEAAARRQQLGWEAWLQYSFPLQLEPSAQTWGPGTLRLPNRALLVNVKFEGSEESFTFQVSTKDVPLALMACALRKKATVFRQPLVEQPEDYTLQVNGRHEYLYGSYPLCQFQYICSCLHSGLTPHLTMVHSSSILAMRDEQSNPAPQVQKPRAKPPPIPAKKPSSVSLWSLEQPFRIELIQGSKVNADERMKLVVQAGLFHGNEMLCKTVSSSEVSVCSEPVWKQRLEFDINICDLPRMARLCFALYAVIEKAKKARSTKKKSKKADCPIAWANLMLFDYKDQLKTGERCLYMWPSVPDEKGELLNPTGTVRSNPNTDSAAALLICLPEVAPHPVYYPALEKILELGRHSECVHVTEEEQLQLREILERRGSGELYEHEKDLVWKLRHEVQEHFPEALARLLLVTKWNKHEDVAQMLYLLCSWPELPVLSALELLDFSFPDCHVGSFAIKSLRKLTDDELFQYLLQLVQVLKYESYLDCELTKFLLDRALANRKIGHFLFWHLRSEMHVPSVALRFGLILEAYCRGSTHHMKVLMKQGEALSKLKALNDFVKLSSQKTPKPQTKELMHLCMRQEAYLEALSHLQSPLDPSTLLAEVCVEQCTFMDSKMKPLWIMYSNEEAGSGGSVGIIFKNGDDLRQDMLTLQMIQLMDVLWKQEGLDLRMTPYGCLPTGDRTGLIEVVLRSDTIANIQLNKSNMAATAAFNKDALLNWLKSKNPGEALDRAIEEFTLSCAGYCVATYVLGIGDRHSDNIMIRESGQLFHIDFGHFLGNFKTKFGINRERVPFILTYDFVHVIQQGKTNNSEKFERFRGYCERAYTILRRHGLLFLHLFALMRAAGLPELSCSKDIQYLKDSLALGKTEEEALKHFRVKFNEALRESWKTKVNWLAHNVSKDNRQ
T2 sequence (P27986 whole entry partner, species assumed): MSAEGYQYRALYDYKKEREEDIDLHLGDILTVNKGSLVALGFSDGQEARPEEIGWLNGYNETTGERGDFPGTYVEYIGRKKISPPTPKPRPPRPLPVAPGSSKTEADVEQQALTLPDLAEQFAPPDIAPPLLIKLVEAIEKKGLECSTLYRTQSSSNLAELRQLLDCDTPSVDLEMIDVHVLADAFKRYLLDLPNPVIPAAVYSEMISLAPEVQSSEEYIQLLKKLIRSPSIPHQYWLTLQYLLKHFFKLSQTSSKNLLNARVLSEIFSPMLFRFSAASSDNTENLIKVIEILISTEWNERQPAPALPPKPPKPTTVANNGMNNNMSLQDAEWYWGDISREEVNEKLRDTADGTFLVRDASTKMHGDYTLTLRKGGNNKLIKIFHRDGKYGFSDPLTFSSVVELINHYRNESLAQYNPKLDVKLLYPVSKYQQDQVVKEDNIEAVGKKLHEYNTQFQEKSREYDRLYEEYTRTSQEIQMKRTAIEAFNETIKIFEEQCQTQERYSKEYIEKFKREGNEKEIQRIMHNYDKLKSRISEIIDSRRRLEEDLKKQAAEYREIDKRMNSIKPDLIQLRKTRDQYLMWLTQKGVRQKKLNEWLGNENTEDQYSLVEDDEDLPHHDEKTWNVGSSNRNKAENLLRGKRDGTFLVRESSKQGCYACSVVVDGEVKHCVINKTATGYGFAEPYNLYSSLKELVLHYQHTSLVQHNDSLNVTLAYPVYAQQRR

Consider `C[C@H](Nc1ncnc2[nH]cnc12)c1nc2ccc(F)cc2c(=O)n1-c1ccccc1` [Compound I], for which the pEC50 on p110β was 6.82 and ~6.82; on p110δ (FB, read-out: Cell-based assay EC50 p110δ, FB) it was 8.08; on p110δ (WB, read-out: Cell-based assay EC50 p110δ, WB), 7.72; at p110α, less than 5.70. The GI50 in the data set on M14 was determined as 88.9 µM; in the data set on NCI-H460, 25.7 µM; in the data set on OVCAR-8, 44.6 µM; with SK-MEL-28, 12.8 µM; in the data set on HOP-62, 14.8 µM; with IGROV1 it was 2.7 µM. Further, the GI50 with MALME-3M amounted to 4.58 µM; in the data set on COLO 205, 33.8 µM; in the data set on HCC-2998, 32.4 µM; with SNB-19, 19.3 µM; in the data set with ADR-RES it was 58.6 µM; with RXF 393, 1.14 µM. Further, the GI50 in the data set on DU-145 was determined as 1.35 µM; in the data set on UACC-62 it was 1.43 µM; with UO-31, 2.01 µM; with A498 it was 0.615 µM. The AUC is 18,000 ng-h/mL in the data set “in vivo” and 15000 ng·h/mL in the data set “in vivo” (AUC). For the same compound, the “Time after which plasma levels had essentially returned to zero” value in the data set “in vivo” (30 mg/kg) turned out to be 8 h. Moreover, in “in vivo” (30 mg/kg), the “Time of peak plasma level after administration” value was in the range of 2 to 4 h.

One may read the GI50 as the concentration at which growth is held to half of that of the control. Low readings indicate more potent growth inhibition, high ones less potent growth inhibition. In general, AUC refers to the area under the concentration-time curve, a measure of exposure. A higher AUC goes with more exposure.
